{"source": "paper PMC5862592", "about": "“CDK8/19 inhibition induces premature G1/S transition and ATR-dependent cell death in prostate cancer cells” (Oncotarget, 2018)", "experiment_in_all_cases": "biochemical", "design_in_all_cases": "KINOMEscan active site-directed competition binding assay (DiscoveRx), 456 kinases, per cent of control at 300 nM", "settings_in_all_cases": "read-out: Percent of Control (%)", "key": {"ALK(C1156Y)": {"molecular_target": "ALK(C1156Y) (Homo sapiens, UniProt Q9UM73, C1156Y)", "sequence (Q9UM73 whole entry C1156Y)": "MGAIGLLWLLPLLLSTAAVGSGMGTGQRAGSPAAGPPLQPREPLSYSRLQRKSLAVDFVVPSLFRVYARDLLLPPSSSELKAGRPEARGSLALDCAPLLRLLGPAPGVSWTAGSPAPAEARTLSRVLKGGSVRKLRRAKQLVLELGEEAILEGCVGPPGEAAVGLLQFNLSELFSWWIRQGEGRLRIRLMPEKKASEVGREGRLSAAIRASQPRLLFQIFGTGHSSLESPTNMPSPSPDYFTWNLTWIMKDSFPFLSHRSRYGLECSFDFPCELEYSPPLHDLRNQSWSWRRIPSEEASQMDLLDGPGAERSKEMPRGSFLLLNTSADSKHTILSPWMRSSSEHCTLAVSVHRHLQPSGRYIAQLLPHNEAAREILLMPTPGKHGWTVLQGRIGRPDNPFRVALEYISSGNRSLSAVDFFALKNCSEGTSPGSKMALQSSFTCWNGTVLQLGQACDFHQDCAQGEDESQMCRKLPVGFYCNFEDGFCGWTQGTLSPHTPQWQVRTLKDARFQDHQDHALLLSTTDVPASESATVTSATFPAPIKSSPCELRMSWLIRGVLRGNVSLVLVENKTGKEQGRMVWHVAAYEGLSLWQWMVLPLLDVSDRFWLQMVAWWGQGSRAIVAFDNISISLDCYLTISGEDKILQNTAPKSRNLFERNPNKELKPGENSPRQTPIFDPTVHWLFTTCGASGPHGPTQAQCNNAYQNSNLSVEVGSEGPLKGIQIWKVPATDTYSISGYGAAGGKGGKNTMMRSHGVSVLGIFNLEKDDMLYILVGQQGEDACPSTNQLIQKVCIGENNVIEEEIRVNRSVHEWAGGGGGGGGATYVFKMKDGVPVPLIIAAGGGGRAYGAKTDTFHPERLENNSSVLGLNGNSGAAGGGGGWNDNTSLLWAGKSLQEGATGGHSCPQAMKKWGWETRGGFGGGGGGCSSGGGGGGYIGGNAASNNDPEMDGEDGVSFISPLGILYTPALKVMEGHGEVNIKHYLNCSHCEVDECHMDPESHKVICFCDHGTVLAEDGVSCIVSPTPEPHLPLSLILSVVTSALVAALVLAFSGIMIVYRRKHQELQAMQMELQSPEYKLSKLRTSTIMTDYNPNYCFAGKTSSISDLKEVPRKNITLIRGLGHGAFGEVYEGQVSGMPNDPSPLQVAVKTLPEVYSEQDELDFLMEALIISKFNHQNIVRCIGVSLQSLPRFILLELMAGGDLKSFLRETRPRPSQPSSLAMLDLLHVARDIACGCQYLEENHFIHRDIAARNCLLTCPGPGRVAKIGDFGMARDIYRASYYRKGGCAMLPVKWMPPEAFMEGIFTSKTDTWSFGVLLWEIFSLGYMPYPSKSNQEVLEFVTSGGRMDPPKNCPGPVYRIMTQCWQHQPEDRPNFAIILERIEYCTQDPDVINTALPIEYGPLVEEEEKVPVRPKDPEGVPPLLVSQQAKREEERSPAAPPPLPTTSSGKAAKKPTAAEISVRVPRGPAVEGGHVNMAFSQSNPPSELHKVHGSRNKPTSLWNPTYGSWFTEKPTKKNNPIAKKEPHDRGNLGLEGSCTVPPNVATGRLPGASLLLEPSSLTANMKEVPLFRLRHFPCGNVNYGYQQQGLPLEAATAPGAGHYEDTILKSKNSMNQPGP", "outline": "(§1)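 Kinase panel (456 enzymes) profiled by competitive displacement at the active site; compounds run at 300 nmol/L.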"}, "CDK4-cyclinD1": {"molecular_target": "T1, CDK4-cyclinD1 (Homo sapiens, UniProt P11802)", "T1 construct": "cyclinD1", "outline": "as §1"}, "EGFR(L861Q)": {"molecular_target": "EGFR(L861Q) (Homo sapiens, UniProt P00533, L861Q)", "sequence (P00533 whole entry L861Q)": "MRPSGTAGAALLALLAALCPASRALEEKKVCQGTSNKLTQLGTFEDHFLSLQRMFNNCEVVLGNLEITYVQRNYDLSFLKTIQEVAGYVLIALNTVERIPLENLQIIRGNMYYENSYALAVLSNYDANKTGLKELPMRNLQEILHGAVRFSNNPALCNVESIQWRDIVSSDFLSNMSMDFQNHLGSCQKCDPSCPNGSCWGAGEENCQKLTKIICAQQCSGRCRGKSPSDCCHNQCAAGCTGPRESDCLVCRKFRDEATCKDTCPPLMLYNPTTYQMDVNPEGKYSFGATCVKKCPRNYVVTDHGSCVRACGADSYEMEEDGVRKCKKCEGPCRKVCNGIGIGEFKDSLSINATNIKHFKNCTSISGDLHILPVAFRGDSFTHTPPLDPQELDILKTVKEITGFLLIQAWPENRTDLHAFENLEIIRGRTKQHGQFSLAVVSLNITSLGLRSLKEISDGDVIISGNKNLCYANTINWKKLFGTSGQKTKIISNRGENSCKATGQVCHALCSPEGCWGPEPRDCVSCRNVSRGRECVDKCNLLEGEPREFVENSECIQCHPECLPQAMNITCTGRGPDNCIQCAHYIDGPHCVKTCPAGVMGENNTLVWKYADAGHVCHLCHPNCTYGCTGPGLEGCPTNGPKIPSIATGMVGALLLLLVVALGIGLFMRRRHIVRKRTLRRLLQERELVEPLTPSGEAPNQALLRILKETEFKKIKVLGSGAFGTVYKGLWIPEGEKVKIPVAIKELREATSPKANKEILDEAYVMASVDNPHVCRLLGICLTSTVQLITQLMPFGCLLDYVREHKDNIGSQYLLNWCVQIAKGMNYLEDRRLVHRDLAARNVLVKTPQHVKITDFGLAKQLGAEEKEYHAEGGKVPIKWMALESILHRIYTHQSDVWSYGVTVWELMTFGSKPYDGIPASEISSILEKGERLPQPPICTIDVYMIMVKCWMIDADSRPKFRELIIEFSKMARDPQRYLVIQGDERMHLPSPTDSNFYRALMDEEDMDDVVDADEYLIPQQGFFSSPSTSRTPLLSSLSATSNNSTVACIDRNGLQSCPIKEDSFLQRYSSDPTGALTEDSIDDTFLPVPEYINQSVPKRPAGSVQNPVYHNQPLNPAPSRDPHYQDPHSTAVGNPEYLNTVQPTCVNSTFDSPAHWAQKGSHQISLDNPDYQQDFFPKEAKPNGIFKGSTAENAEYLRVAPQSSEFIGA", "outline": "as §1"}, "FGFR4": {"molecular_target": "FGFR4 (Homo sapiens, UniProt P22455)", "outline": "as §1"}, "FLT4": {"molecular_target": "FLT4 (Homo sapiens, UniProt P35916)", "sequence (P35916 whole entry)": "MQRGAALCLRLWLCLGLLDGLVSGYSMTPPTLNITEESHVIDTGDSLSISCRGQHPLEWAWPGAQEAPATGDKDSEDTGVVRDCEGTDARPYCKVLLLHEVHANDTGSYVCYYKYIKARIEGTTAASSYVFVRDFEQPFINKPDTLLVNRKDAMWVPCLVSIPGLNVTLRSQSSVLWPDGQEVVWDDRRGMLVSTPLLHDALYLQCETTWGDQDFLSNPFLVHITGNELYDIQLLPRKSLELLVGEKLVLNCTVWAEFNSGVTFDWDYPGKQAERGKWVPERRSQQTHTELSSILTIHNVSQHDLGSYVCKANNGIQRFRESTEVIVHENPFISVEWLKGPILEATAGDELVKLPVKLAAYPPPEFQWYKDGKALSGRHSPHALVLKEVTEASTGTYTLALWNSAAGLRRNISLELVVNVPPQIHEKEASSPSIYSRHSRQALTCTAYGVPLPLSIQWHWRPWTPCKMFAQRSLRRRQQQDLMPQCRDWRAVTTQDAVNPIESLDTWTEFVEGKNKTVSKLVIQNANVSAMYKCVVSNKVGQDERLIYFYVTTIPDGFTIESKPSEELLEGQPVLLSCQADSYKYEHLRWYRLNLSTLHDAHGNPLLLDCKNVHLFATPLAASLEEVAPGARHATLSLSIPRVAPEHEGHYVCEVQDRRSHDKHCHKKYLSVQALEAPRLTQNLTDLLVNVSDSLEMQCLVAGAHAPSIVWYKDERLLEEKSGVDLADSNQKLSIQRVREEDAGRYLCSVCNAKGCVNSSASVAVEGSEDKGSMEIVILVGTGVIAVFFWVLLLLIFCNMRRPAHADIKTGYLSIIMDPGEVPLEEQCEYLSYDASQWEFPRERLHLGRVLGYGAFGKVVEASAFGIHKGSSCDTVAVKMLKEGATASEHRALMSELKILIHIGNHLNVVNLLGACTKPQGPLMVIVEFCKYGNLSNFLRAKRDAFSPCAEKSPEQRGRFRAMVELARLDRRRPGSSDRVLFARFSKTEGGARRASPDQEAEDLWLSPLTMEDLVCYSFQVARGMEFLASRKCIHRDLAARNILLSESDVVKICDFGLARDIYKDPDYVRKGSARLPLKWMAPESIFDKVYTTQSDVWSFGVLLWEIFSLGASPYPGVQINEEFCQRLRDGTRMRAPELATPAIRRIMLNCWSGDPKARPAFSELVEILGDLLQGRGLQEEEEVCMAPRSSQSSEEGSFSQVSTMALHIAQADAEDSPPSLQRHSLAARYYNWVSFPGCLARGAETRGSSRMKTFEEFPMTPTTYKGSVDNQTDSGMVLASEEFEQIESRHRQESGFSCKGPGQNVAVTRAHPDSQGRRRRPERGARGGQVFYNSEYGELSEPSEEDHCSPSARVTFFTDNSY", "outline": "as §1"}, "ITK": {"molecular_target": "ITK (Homo sapiens, UniProt Q08881)", "outline": "as §1"}, "JNK2": {"molecular_target": "T2, JNK2 (Homo sapiens, UniProt P45984)", "T2 construct": "gene MAPK9", "outline": "as §1"}, "KIT-autoinhibited": {"molecular_target": "KIT-autoinhibited (Homo sapiens, UniProt P10721)", "outline": "as §1"}, "LKB1": {"molecular_target": "T3, LKB1 (Homo sapiens, UniProt Q15831)", "T3 construct": "gene STK11", "outline": "as §1"}, "MELK": {"molecular_target": "MELK (Homo sapiens, UniProt Q14680)", "outline": "as §1"}, "MKNK2": {"molecular_target": "MKNK2 (Homo sapiens, UniProt Q9HBH9)", "outline": "as §1"}, "NEK11": {"molecular_target": "NEK11 (Homo sapiens, UniProt Q8NG66)", "sequence (Q8NG66 whole entry)": "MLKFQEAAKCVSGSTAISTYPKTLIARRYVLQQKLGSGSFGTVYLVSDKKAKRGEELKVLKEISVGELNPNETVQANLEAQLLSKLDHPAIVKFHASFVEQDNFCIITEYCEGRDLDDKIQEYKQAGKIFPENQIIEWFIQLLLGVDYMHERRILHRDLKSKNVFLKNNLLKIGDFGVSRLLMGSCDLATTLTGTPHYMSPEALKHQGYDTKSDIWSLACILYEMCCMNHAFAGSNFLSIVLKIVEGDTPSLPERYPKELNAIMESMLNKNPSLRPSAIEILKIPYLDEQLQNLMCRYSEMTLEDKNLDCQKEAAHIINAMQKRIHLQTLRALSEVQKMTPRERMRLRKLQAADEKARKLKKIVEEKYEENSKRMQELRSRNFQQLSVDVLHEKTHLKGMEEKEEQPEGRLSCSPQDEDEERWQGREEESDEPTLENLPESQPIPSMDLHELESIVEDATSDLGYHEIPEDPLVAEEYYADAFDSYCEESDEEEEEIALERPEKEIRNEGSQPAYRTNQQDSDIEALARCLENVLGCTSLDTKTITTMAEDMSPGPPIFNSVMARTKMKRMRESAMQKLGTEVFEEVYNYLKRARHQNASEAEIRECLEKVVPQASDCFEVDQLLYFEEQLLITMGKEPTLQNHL", "outline": "as §1"}, "PAK4": {"molecular_target": "PAK4 (Homo sapiens, UniProt O96013)", "outline": "as §1"}, "PIK3CA(Q546K)": {"molecular_target": "PIK3CA(Q546K) (Homo sapiens, UniProt P42336, Q546K)", "outline": "as §1"}, "PRKCD": {"molecular_target": "PRKCD (Homo sapiens, UniProt Q05655)", "outline": "as §1"}, "RAF1": {"molecular_target": "RAF1 (Homo sapiens, UniProt P04049)", "outline": "as §1"}, "RIPK4": {"molecular_target": "RIPK4 (Homo sapiens, UniProt P57078)", "outline": "as §1"}, "[1]": {"molecular_target": "T4, RPS6KA4(Kin.Dom.2-C-terminal) (Homo sapiens, UniProt O75676)", "T4 construct": "Kin.Dom.2-C-terminal", "outline": "as §1"}, "[2]": {"molecular_target": "T5, RPS6KA5(Kin.Dom.1-N-terminal) (Homo sapiens, UniProt O75582)", "T5 construct": "Kin.Dom.1-N-terminal", "outline": "as §1"}, "TRPM6": {"molecular_target": "TRPM6 (Homo sapiens, UniProt Q9BX84)", "outline": "as §1"}, "YANK1": {"molecular_target": "T6, YANK1 (Homo sapiens, UniProt Q8WU08)", "T6 construct": "gene STK32A", "outline": "as §1"}}, "note": "Where two headings read alike, the source gives them in different places."}
{"smiles": "O=C(/C=C/c1cnccc1-c1ccc(F)cc1)Nc1ccc(CCc2nnco2)cc1", "note": "[T-418, (2E)-3-(4-(4-fluorophenyl)pyridin-3-yl)-N-(4-(2-(1,3,4-oxadiazol-2-yl)ethyl)phenyl)acrylamide]", "values": [{"measurement": "remaining binding at 0.3 µM", "setting": "ALK(C1156Y); sheet T-418", "result": 91, "unit": "%"}, {"measurement": "remaining binding at 0.3 µM", "setting": "CDK4-cyclinD1; sheet T-418", "result": 91, "unit": "%"}, {"measurement": "remaining binding at 0.3 µM", "setting": "EGFR(L861Q); sheet T-418", "result": 86, "unit": "%"}, {"measurement": "remaining binding at 0.3 µM", "setting": "FGFR4; sheet T-418", "result": 80, "unit": "%"}, {"measurement": "remaining binding at 0.3 µM", "setting": "FLT4; sheet T-418", "result": 84, "unit": "%"}, {"measurement": "remaining binding at 0.3 µM", "setting": "ITK; sheet T-418", "result": 100, "unit": "%"}, {"measurement": "remaining binding at 0.3 µM", "setting": "JNK2; sheet T-418", "result": 86, "unit": "%"}, {"measurement": "remaining binding at 0.3 µM", "setting": "KIT-autoinhibited; sheet T-418", "result": 100, "unit": "%"}, {"measurement": "remaining binding at 0.3 µM", "setting": "LKB1; sheet T-418", "result": 53, "unit": "%"}, {"measurement": "remaining binding at 0.3 µM", "setting": "MELK; sheet T-418", "result": 100, "unit": "%"}, {"measurement": "remaining binding at 0.3 µM", "setting": "MKNK2; sheet T-418", "result": 97, "unit": "%"}, {"measurement": "remaining binding at 0.3 µM", "setting": "NEK11; sheet T-418", "result": 100, "unit": "%"}, {"measurement": "remaining binding at 0.3 µM", "setting": "PAK4; sheet T-418", "result": 99, "unit": "%"}, {"measurement": "remaining binding at 0.3 µM", "setting": "PIK3CA(Q546K); sheet T-418", "result": 100, "unit": "%"}, {"measurement": "remaining binding at 0.3 µM", "setting": "PRKCD; sheet T-418", "result": 100, "unit": "%"}, {"measurement": "remaining binding at 0.3 µM", "setting": "RAF1; sheet T-418", "result": 80, "unit": "%"}, {"measurement": "remaining binding at 0.3 µM", "setting": "RIPK4; sheet T-418", "result": 100, "unit": "%"}, {"measurement": "remaining binding at 0.3 µM", "setting": "[1]; sheet T-418", "result": 86, "unit": "%"}, {"measurement": "remaining binding at 0.3 µM", "setting": "[2]; sheet T-418", "result": 80, "unit": "%"}, {"measurement": "remaining binding at 0.3 µM", "setting": "TRPM6; sheet T-418", "result": 90, "unit": "%"}, {"measurement": "remaining binding at 0.3 µM", "setting": "YANK1; sheet T-418", "result": 100, "unit": "%"}]}
{"smiles": "Cc1ncccc1Oc1sc(C(N)=O)c2c1-c1c(cnn1C)CC2", "note": "[T-474, 1-methyl-8-((2-methylpyridin-3-yl)oxy)-4,5-dihydro-1H-thieno[3,4-g]indazole-6-carboxamide]", "values": [{"measurement": "remaining binding at 0.3 µM", "setting": "ALK(C1156Y)", "result": 98, "unit": "%"}, {"measurement": "remaining binding at 0.3 µM", "setting": "CDK4-cyclinD1", "result": 95, "unit": "%"}, {"measurement": "remaining binding at 0.3 µM", "setting": "EGFR(L861Q)", "result": 91, "unit": "%"}, {"measurement": "remaining binding at 0.3 µM", "setting": "FGFR4", "result": 97, "unit": "%"}, {"measurement": "remaining binding at 0.3 µM", "setting": "FLT4", "result": 83, "unit": "%"}, {"measurement": "remaining binding at 0.3 µM", "setting": "ITK", "result": 100, "unit": "%"}, {"measurement": "remaining binding at 0.3 µM", "setting": "JNK2", "result": 87, "unit": "%"}, {"measurement": "remaining binding at 0.3 µM", "setting": "KIT-autoinhibited", "result": 100, "unit": "%"}, {"measurement": "remaining binding at 0.3 µM", "setting": "LKB1", "result": 67, "unit": "%"}, {"measurement": "remaining binding at 0.3 µM", "setting": "MELK", "result": 71, "unit": "%"}, {"measurement": "remaining binding at 0.3 µM", "setting": "MKNK2", "result": 86, "unit": "%"}, {"measurement": "remaining binding at 0.3 µM", "setting": "NEK11", "result": 100, "unit": "%"}, {"measurement": "remaining binding at 0.3 µM", "setting": "PAK4", "result": 100, "unit": "%"}, {"measurement": "remaining binding at 0.3 µM", "setting": "PIK3CA(Q546K)", "result": 100, "unit": "%"}, {"measurement": "remaining binding at 0.3 µM", "setting": "PRKCD", "result": 96, "unit": "%"}, {"measurement": "remaining binding at 0.3 µM", "setting": "RAF1", "result": 98, "unit": "%"}, {"measurement": "remaining binding at 0.3 µM", "setting": "RIPK4", "result": 100, "unit": "%"}, {"measurement": "remaining binding at 0.3 µM", "setting": "[1]", "result": 95, "unit": "%"}, {"measurement": "remaining binding at 0.3 µM", "setting": "[2]", "result": 100, "unit": "%"}, {"measurement": "remaining binding at 0.3 µM", "setting": "TRPM6", "result": 95, "unit": "%"}, {"measurement": "remaining binding at 0.3 µM", "setting": "YANK1", "result": 100, "unit": "%"}]}
